The structures appear in SMILES notation. pIC50: −log10 of the molar value. Where two headings read alike, the source gives them in different places. Peptide text beside a SMILES is read from it. Where only a bound is given, the exact number is not on record here.

Experimental findings from patent US7432045B2 (priority 2003, dated 2008) are described below.

One data set concerns HSV-1 KOS mutant hrR3. Description: LacZ+ virus (hrR3) entry assay with pre-adsorbed virus (entry block). The data set is classed as cell-based.
In data set [1] the test system is Influenza virus strain PR8. The arrangement: species or system mice. The note with it: mouse, in vivo.
In another data set the test system is hrR3 virions. Put plainly: Trypsinization of peptide-treated virions. The data set is classed as cell-based, HSV-1. Conditions: for pIC50: 1 h at 37° C.
Another data set addresses T1, trypsin (Sus scrofa, UniProt P00761).
T1 construct: purchased BioWhittaker 17-160E
Put plainly: Trypsinization of peptides. The note with it: 0.005 or 0.01% trypsin, 1 h at 37° C. How it is done:
Trypsinization of peptides: Peptides dissolved in serum-free DMEM were exposed to 0.005 or 0.01% trypsin for 1 h at 37° C. The trypsin was then inactivated with a 1.3-fold molar excess of soybean trypsin inhibitor and the ability of the peptides to inactivate virions was tested as described above (centrifugation assay). In controls, trypsin was inactivated before it was added to the peptides.
In Panel B, peptides in serum-free medium were pre-treated with active trypsin (open bars) or inactivated trypsin (shaded bars) for 1 h at 37° C. before they were added to virions for 1 h at 37° C. (see Example 1). The treated virions were then pelleted and resuspended in serum-supplemented medium and assayed for infectivity without further trypsinization. The peptide concentrations were as high or higher than those used in Panel A: […] TAT-C, 50 μM bKLA, 200 μM EB and bHOM-9. Trypsin concentrations used in both Panels A and B, were 0.005% (for bKLA, EB and bHOM-9) or 0.01% (for TAT-C and the ‘no peptide’ control).

T1 sequence (P00761 9-231): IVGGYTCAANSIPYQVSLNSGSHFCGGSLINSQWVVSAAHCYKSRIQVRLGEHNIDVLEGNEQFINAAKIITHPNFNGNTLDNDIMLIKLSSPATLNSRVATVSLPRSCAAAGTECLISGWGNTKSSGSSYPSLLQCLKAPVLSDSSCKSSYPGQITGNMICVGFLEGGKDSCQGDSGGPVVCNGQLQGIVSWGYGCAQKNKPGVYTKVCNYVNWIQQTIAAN

In the case of `CC(C)C[C@H](NC(=O)[C@H](C)NC(=O)[C@H](CC(C)C)NC(=O)[C@H](CC(C)C)NC(=O)[C@@H](NC(=O)[C@H](C)NC(=O)[C@@H]1CCCN1C(=O)[C@H](CC(C)C)NC(=O)[C@H](CC(C)C)NC(=O)[C@H](C)NC(=O)[C@@H](NC(=O)[C@H](C)NC(=O)[C@H](C)NC(=O)[C@H](CCCCN)NC(=O)[C@H](CCCCN)NC(=O)[C@H](CCCNC(=N)N)NC(=O)[C@@H](N)CCCNC(=N)N)C(C)C)C(C)C)C(=O)N[C@@H](CC(C)C)C(=O)N[C@@H](C)C(=O)N1CCC[C@H]1C(=O)O` [EB] (H-RRKKAAVALLPAVLLALLAP-OH), in the data set with HSV-1 KOS mutant hrR3 (25 μM peptide, pre-adsorbed virus), the “reduction of the number of lacZ+ cells” value is given as above 90%. In addition, the virus entry inhibited in the data set on HSV-1 KOS mutant hrR3 (50 μM, 1 hour periods between 1 and 4 hours post-infection) is listed as 70-80%. The pIC50 (commonly the negative decadic logarithm of the IC50, by convention in mol/L) with HSV-1 KOS mutant hrR3 (FIG. 7B, read-out: inhibition of entry of pre-adsorbed virus IC50) is 4.82; with HSV-1 KOS mutant hrR3 (read-out: Entry Blocking Activity IC50), 4.59 to 4.82; in the data set with hrR3 (read-out: IC50 for rendering cells resistant to subsequent viral infection in the absence of peptide, cells exposed 1 h at 37° C., peptide rinsed off), 5.64; with hrR3 (read-out: IC50 of cellular resistance after 8.5 h in peptide-free medium, 8.5 h after first exposure) it was below 4.00; with hrR3 (read-out: IC50 of cellular resistance, first exposure, infected immediately after 1 h exposure), 5.40; in the data set on hrR3 (read-out: IC50 of cellular resistance, second exposure, second exposure 8.5 h after the first), 5.60. Besides, in data set [1], the mice protected was found to be 90%. In the data set on hrR3 virions, the “effect of trypsin on infectivity of peptide-treated virions” value was “did not have any effect”. The “effect of trypsinization of the peptide on its antiviral activity” value on trypsin is “completely abolished their antiviral activity”. Further, in the data set with hrR3 (30 μM peptide, 37° C.), the “time needed to induce cellular resistance” value is reported as “almost instantaneously”. Besides, the “reversibility of resistance induced at 4° C. by rinsing with 0.5 M NaCl” value in the data set on hrR3 (induced at 4° C.) was “only partially reversible”. In addition, the “reversibility of resistance induced at 37° C. by rinsing with 0.5 M NaCl” value with hrR3 (induced at 37° C.) is “completely irreversible”.
Turning to `N=C(N)NCCC[C@H](NC(=O)CN)C(=O)N[C@@H](CCCCN)C(=O)N[C@@H](CCCCN)C(=O)N[C@@H](CCCNC(=N)N)C(=O)N[C@@H](CCCNC(=N)N)C(=O)N[C@@H](CCC(N)=O)C(=O)N[C@@H](CCCNC(=N)N)C(=O)N[C@@H](CCCNC(=N)N)C(=O)N[C@@H](CCCNC(=N)N)C(=O)N[C@@H](CS)C(=O)O` [TAT-C, NH2-GRKKRRQRRRC-COOH], the pIC50 in the data set on HSV-1 KOS mutant hrR3 (33° C., read-out: Entry Block 33° C. IC50) was 5.52; with HSV-1 KOS mutant hrR3 (33° C., read-out: Entry Block IC50), 5.52; with HSV-1 KOS mutant hrR3 (33° C., read-out: inhibition of entry IC50) it was 5.52; in the data set on HSV-1 KOS mutant hrR3 (37° C., read-out: Entry Block 37° C. IC50), 5.51; in the data set with hrR3 virions (read-out: IC50 after exposure of treated virus to 0.01% active trypsin), 4.07; with hrR3 virions (read-out: IC50 after exposure of treated virus to inactivated trypsin) it was 4.05. Also, in the data set with HSV-1 KOS mutant hrR3 (FIGS. 16A, B), the “temperature dependence of inhibition of entry and virus inactivation” value was “completely temperature-independent”. Besides, the mice protected in data set [1] was determined as 90%. Also, the “effect of trypsin on infectivity of peptide-treated virions” value in the data set with hrR3 virions is reported as “no effect on virus infectivity”. Further, the “effect of trypsinization of the peptide on its antiviral activity” value on trypsin was “completely abolished their antiviral activity”. Moreover, the “inhibition after rinsing with 0.5 M NaCl” value in the data set with hrR3 (30 μM peptide 1 h at 4° C.) is recorded as “completely reversed”. For the same compound, the infection blocked with hrR3 (30 μM peptide 1 h at 4° C., rinsed with culture medium alone) was found to be 50%.
